Tested on: tobacco budworm (Heliothis virescens [Fabricius])
Assay: surface-treated diet test against the tobacco budworm
Format: in vivo
Conditions: tobacco budworm second instar larvae, 0.25 millimoles of candidate insecticide on the surface of the diet, five-day exposure; for Percent Mortality: compared to total number of insects infested; for Percent Growth Inhibition: inhibition of insect weight relative to untreated controls
Outline: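 Wheat germ artificial diet surface-treated with 40 µL of 50 mM DMSO stock diluted 1:7 in 1:1 water/acetone (0.25 millimolar on diet), or sub-multiples for rate tests. One second-instar larva per well, 25° C, 60% RH, 5 days; percent weight inhibition vs DMSO controls and percent mortality.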

SMILES	Percent Mortality (surface-treated diet) [%]	Percent Growth Inhibition (surface-treated diet) [%]	Percent Mortality [%]	Percent Growth Inhibition [%]
CN(C)C(=O)Nc1ccc(CN2CCC(C(OC(=O)Nc3cc(F)cc(F)c3)c3ccc(C(F)(F)F)cc3)CC2)cc1 (centres unmarked) [Compound 519]	17	93		
CCn1nnc(-c2ccc(CN3CCC(C(OC(=O)Nc4ccc(-c5ccccc5)cc4)c4ccc(OC)cc4)CC3)cc2)n1 (centres unmarked) [Compound 607]	100	100		
CCn1nnc(-c2ccc(CN3CCC(C(OC(=O)Nc4cc(F)cc(F)c4)c4cc(F)cc(F)c4)CC3)cc2)n1 (centres unmarked) [Compound 593]	100	100		
CCOC(=O)Nc1ccc(CN2CCC(C(OC(=O)Nc3cc(F)cc(F)c3)c3ccc(C(F)(F)F)cc3)CC2)cc1 (centres unmarked) [Compound 499]	100	100		
CC(C)C(=O)Nc1ccc(CN2CCC(C(OC(=O)Nc3cc(F)cc(F)c3)c3ccc(C(F)(F)F)cc3)CC2)cc1 (centres unmarked) [Compound 496]	100	100		
CCn1nnc(-c2ccc(CN3CCC(C(OC(=S)Nc4ccc(C(F)(F)F)cc4)c4ccc(OC(F)(F)F)cc4)CC3)cc2)n1 (centres unmarked) [Compound 302]	100	100		
CC(C)OC(=O)Nc1ccc(CN2CCC(C(OC(=O)Nc3cc(F)cc(F)c3)c3ccc(Cl)cc3Cl)CC2)cc1 (centres unmarked) [Compound 507]	100	100		
Cn1nnc(-c2ccc(CN3CCC(C(NC(=O)Oc4cccc(Cl)c4)c4ccc(OC(F)(F)F)cc4)CC3)cc2)n1 (centres unmarked) [Compound 348]	100	100		
CCn1nnc(-c2ccc(C[N+]3([O-])CCC(C(OC(=O)Nc4ccc(F)cc4)c4ccc(OC(F)(F)F)cc4)CC3)cc2)n1 (centres unmarked) [Compound 401]	100	100		
CC(C)NC(=O)OC(c1ccc(C(F)(F)F)cc1)C1CCN(Cc2ccc(Oc3ccccn3)cc2)CC1 (centres unmarked) [Compound 776]			100	100
O=C(Nc1cc(F)cc(F)c1)OC(c1ccc(C(F)(F)F)cc1)C1CCN(Cc2ccc(Oc3ncccc3C(F)(F)F)cc2)CC1 (centres unmarked) [Compound 689]	100	100		
FC(F)(F)c1ccc(C(=C2CCN(Cc3ccc(Oc4ncccn4)cc3)CC2)c2cc(Cl)cc(Cl)c2)cc1 [Compound 819]			50	100
CCNC(=O)OC(c1ccc(C(F)(F)F)cc1)C1CCN(Cc2ccc(Oc3ccccn3)cc2)CC1 (centres unmarked) [Compound 774]			0	98
CCON=Cc1ccc(CN2CCC(C(OC(=O)Nc3ccc(Br)cc3)c3ccc(C(F)(F)F)cc3)CC2)cc1 (centres unmarked) [Compound 183]	100	100		
O=C(Nc1ccc(Cl)cc1)OC(c1ccc(C(F)(F)F)cc1)C1CC[N+]([O-])(Cc2ccc(Oc3ncccn3)cc2)CC1 (centres unmarked) [Compound 762]			100	100
FC(F)(F)c1ccc(C(OC(=S)Nc2ccc(Cl)cc2)C2CCN(Cc3ccc(Oc4ccccn4)cc3)CC2)cc1 (centres unmarked) [Compound 667]	100	100		
O=C(Nc1ccc(C(F)(F)F)cc1)OC(c1ccc(Cl)cc1)C1CCN(Cc2ccc(Oc3ccccn3)cc2)CC1 (centres unmarked) [Compound 635]	100	100		
CC(C)N(C)C(=O)OC(c1ccc(C(F)(F)F)cc1)C1CCN(Cc2ccc(Oc3ccccn3)cc2)CC1 (centres unmarked) [Compound 778]			0	100
CCCNC(=O)OC(c1ccc(C(F)(F)F)cc1)C1CCN(Cc2ccc(Oc3ccccn3)cc2)CC1 (centres unmarked) [Compound 427]	33	100		

SMILES	Percent Mortality (surface-treated diet) [%]	Percent Growth Inhibition (surface-treated diet) [%]	Percent Mortality [%]	Percent Growth Inhibition [%]
O=C(Nc1ccc(F)cc1F)OC(c1ccc(C(F)(F)F)cc1)C1CCN(Cc2ccc(Oc3ccccn3)cc2)CC1 (centres unmarked) [Compound 679]	100	100		
Nc1ccc(CN2CCC(C(OC(=O)Nc3ccc(Cl)cc3)c3ccc(C(F)(F)F)cc3)CC2)cc1 (centres unmarked) [Compound 465]	0	92		
O=C(Nc1ccc(C(F)(F)F)cc1)OC(c1ccc(OC(F)(F)F)cc1)C1CCN(Cc2ccc(Oc3ccccn3)cc2)CC1 (centres unmarked) [Compound 246]	100	100		
CCn1nnc(-c2ccc(CN3CCC(C(OC(=O)Nc4ccccc4)c4ccc(OC(F)(F)F)cc4)CC3)cc2)n1 (centres unmarked) [Compound 261]	100	100		
O=C(Nc1cc(F)cc(F)c1)OC(c1ccc(C(F)(F)F)cc1)C1CC[N+]([O-])(Cc2ccc(Oc3ncccc3C(F)(F)F)cc2)CC1 (centres unmarked) [Compound 759]			100	100
CSc1ccc(NC(=O)OC(c2ccc(C(F)(F)F)cc2)C2CCN(Cc3ccc(Oc4ccccn4)cc3)CC2)cc1 (centres unmarked) [Compound 702]			100	100
C=CCOC(c1ccc(C(F)(F)F)cc1)C1CCN(Cc2ccc(Oc3ccccn3)cc2)CC1 (centres unmarked) [Compound 769]			0	13
O=C(NCc1ccccc1)OC(c1ccc(C(F)(F)F)cc1)C1CCN(Cc2ccc(Oc3ccccn3)cc2)CC1 (centres unmarked) [Compound 659]	50	100		
Cn1nnc(-c2ccc(CN3CCC(C(NC(=O)Nc4ccc(OC(F)(F)F)cc4)c4ccc(OC(F)(F)F)cc4)CC3)cc2)n1 (centres unmarked) [Compound 345]	100	100		
CNC(=O)Oc1ccc(CN2CCC(=C(c3ccc(OC(F)(F)F)cc3)c3ccc(OC(F)(F)F)cc3)CC2)cc1 [Compound 791]			100	100
O=C(Nc1cccc(F)c1)OC(c1cc(Cl)cc(Cl)c1)C1CCN(Cc2ccc(Oc3ncccn3)cc2)CC1 (centres unmarked) [Compound 727]			100	100
O=C(Nc1cccc(C(F)(F)F)c1)OC(c1ccc(F)cc1)C1CCN(Cc2ccc(Oc3ccccn3)cc2)CC1 (centres unmarked) [Compound 642]	100	100		
CCn1nnc(-c2ccc(CN3CCC(C(OC(=O)Nc4ccc(Cl)cc4)c4ccc(OC(F)(F)F)cc4)CC3)cc2)n1 (centres unmarked) [Compound 267]	100	100		
CCCOc1ccc(CN2CCC(C(OC(=O)Nc3cccc(C(F)(F)F)c3)c3ccc(Cl)cc3)CC2)cc1 (centres unmarked) [Compound 472]	100	100		
O=C(Nc1ccc(Cl)c(Cl)c1)OC(c1ccc(C(F)(F)F)cc1)C1CC[N+]([O-])(Cc2ccc(Oc3ccccn3)cc2)CC1 (centres unmarked) [Compound 396]	100	100		
O=C(Nc1cc(F)cc(F)c1)OC(c1ccc(C(F)(F)F)cc1)C1CC[N+]([O-])(Cc2ccc(Oc3ncccc3Cl)cc2)CC1 (centres unmarked) [Compound 755]			100	100
O=C(Nc1cc(F)cc(F)c1)OC(c1ccc(C(F)(F)F)cc1)C1CCN(Cc2ccc(-c3ccccc3)cc2)CC1 (centres unmarked) [Compound 544]	100	100		
Cn1nnc(-c2ccc(CN3CCC(C(NC(=O)Oc4ccc(F)cc4)c4ccc(OC(F)(F)F)cc4)CC3)cc2)n1 (centres unmarked) [Compound 353]	17	87		

Reference: US7300946B2, “N-(substituted arylmethyl)-4-(disubstituted methyl) piperidines and pyridines” (Bayer CropScience AG, priority 2002, dated 2007)
